Values joined by “and” are separate entries in the source; they are usually repeats but may differ in a detail not shown here. Equal values may be shown once. Marks after values point to notes of the source that are not given here. Non-standard residues stand in square brackets, D forms with d. Residues, ends and D or L forms follow the SMILES beside them. *: point of attachment. Asu = N[C@@H](CCCCCC(=O)O)C(=O)O; NHOH = ON*
Assays:
HDAC8 [1] = target: T1, HDAC8 (Homo sapiens, UniProt Q9BY41); assay: HDAC inhibition assay (fluorogenic, Ac-Leu-Gly-Lys(Tfa)-AMC); type: biochemical; details: for HDAC8 dose-response data (relative enzyme activity, replicate values), Fig. 6 + S. Fig. 10: two replicate columns per inhibitor; for HDAC8 dose-response data (relative enzyme activity), Fig. 6 + S. Fig. 10: duplicate columns
T1 construct: HDAC8 (full length, C-terminal His tag, BPS Bioscience, cat. #: 50008); purchased BPS Bioscience 50008
T1 sequence (Q9BY41 1-377): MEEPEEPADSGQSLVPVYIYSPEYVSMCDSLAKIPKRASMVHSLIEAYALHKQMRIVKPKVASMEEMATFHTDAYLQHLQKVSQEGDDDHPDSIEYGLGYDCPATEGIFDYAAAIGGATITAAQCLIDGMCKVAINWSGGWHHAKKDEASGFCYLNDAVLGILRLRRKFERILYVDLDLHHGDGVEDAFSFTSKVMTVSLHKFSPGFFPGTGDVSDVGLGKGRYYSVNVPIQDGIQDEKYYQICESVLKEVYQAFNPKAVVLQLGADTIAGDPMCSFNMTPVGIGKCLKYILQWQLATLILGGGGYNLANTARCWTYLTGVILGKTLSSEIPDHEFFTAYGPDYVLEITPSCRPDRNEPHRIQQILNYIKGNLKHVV

HDAC3/NCoR2 [2] = target: T2, HDAC3/NCoR2 (Homo sapiens, UniProt O15379); assay: HDAC inhibition assay (fluorogenic, Ac-Leu-Gly-Lys(Ac)-AMC); type: biochemical; details: for HDAC3 dose-response data (relative enzyme activity), Fig. 6 + S. Fig. 10: duplicate columns
T2 construct: HDAC3/NCoR2 (full length, C-terminal His tag, NCoR2 N-terminal GST tag); purchased BPS Bioscience 50003

HDAC8 [3] = target: T1, HDAC8; assay: Recombinant HDAC µSPOT microarray binding assay
Experimental: (§1) Experiments were performed twice, data were obtained with Array Analyze software (Active Motif), and data analysis and representation were performed with the GraphPad Prism 7 software. Outliers were curated manually and data were fitted to nonlinear regression [log(agonist) vs. response—variable slope (four parameters)]. […] Non-sigmoidal curves were denoted as not determined (N.D.) The pEC50 values were determined as the concentration of HDAC enzyme required for half-maximal binding signal.

HDAC2 [4] = target: T3, HDAC2 (Homo sapiens, UniProt Q92769); assay: Recombinant HDAC µSPOT microarray binding assay;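 also: Cellulose-bound peptide spots on slides incubated with six HDAC enzyme concentrations, binding intensity read, four-parameter variable-slope fit, EC50 is enzyme concentration giving half-maximal binding, in HEPES buffer pH 7.4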
T3 construct: HDAC2 (full length, C-terminal His tag, BPS Bioscience, cat. #: 50002); purchased BPS Bioscience 50002

HDAC3/NCoR2 [5] = target: T2, HDAC3/NCoR2; assay: Recombinant HDAC µSPOT microarray binding assay
HDAC1 [6] = target: T4, HDAC1 (Homo sapiens, UniProt Q13547); assay: Recombinant HDAC µSPOT microarray binding assay;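 also: slides with spotted peptides incubated with six HDAC concentrations in HEPES buffer pH 7.4, spot intensities fitted by four-parameter logistic, EC50 as enzyme concentration giving half-maximal binding signal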
T4 construct: HDAC1 (full length, C-terminal His tag, C-terminal FLAG tag, BPS Bioscience, cat. #: 50051); FLAG (C); purchased BPS Bioscience 50051
Experimental: as §1

HDAC1 [7] = target: T4, HDAC1; assay: HDAC inhibition assay (fluorogenic, Ac-Leu-Gly-Lys(Ac)-AMC); type: biochemical; details: for HDAC1 dose-response data (relative enzyme activity), Fig. 6 + S. Fig. 10: duplicate columns
HDAC2 [8] = target: T3, HDAC2; assay: as above; type: biochemical; details: for HDAC2 dose-response data (relative enzyme activity), Fig. 6 + S. Fig. 10: duplicate columns
HDAC6 = target: T5, HDAC6 (Homo sapiens, UniProt Q9UBN7); assay: as above; type: biochemical; details: HDAC6, replicates
T5 construct: HDAC6 (full length, BPS Bioscience, cat. #: 50056); purchased BPS Bioscience 50056
T5 sequence (Q9UBN7 1-1215): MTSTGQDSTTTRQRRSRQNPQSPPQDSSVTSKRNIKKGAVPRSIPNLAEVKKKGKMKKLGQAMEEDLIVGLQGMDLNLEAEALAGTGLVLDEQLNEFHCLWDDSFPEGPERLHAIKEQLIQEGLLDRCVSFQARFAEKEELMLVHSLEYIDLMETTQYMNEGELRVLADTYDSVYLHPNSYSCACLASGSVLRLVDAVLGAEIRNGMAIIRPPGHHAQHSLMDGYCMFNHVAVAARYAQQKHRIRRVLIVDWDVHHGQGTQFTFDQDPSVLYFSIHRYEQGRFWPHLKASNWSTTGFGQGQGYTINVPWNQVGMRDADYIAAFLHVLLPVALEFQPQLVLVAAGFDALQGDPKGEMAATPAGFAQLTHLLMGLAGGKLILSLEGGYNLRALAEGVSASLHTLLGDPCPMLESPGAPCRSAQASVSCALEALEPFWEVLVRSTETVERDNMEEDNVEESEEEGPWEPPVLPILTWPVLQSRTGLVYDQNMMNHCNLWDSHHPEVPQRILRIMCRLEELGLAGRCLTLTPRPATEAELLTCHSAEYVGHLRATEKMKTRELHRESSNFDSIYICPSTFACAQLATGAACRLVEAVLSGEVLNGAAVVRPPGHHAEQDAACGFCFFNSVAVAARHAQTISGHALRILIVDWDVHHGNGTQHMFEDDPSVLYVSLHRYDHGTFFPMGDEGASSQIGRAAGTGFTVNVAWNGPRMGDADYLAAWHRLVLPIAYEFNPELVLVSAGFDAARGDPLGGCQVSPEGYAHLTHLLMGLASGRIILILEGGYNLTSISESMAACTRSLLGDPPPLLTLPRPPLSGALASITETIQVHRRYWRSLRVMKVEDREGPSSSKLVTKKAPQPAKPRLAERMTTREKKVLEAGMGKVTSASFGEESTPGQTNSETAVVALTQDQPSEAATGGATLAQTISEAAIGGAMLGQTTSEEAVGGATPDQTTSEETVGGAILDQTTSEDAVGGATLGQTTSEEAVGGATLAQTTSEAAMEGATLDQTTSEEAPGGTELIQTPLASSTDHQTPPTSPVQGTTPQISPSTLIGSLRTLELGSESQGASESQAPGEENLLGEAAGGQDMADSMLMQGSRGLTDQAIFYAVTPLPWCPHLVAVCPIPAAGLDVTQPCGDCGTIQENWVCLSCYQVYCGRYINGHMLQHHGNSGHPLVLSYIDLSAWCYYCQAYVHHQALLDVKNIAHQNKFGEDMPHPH

[9] = log[inhibitor(M)] -10,5850266520292*, whole line marked with asterisks

T2 sequence (O15379 whole entry): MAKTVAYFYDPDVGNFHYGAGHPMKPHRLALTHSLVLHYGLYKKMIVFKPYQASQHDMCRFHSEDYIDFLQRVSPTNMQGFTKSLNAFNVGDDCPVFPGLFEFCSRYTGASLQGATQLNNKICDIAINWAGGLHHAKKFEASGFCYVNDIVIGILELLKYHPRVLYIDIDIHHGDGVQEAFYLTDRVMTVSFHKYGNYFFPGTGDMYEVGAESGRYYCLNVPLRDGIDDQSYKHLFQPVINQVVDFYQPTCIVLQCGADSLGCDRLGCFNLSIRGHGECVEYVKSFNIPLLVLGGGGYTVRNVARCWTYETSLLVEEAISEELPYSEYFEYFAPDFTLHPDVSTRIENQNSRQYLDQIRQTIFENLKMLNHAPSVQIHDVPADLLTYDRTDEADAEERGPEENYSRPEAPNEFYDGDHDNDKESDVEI
T2 sequence (Q9Y618 389-480 partner limits assumed): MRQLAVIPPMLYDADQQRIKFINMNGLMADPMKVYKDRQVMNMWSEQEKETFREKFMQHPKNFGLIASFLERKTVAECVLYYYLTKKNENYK
T3 sequence (Q92769 whole entry): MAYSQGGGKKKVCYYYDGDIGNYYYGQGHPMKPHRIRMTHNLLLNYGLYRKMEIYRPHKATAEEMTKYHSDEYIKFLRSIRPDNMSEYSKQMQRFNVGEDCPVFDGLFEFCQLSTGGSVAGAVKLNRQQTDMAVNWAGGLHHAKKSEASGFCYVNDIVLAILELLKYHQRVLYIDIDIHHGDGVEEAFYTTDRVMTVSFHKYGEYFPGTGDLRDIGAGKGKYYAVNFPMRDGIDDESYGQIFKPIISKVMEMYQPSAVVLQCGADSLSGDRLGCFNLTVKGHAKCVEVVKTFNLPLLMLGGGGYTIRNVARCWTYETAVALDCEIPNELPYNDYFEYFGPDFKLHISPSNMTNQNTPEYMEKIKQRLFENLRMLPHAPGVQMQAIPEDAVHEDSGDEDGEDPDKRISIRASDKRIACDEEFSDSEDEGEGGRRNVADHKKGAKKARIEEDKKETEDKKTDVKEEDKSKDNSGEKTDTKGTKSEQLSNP
T4 sequence (Q13547 whole entry): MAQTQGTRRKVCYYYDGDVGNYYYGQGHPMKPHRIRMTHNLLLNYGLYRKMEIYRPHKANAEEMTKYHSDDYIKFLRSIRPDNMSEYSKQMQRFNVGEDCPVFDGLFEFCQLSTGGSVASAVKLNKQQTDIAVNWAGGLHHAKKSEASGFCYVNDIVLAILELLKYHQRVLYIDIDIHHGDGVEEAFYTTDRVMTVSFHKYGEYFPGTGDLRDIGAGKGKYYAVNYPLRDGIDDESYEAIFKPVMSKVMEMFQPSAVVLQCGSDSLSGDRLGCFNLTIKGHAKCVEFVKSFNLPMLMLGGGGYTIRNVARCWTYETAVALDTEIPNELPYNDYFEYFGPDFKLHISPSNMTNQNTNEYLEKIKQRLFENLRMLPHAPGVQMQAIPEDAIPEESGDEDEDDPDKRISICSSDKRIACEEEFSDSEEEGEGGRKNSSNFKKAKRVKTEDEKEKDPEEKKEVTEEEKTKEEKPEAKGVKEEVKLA

CC[C@H](C)[C@H](NC(=O)[C@@H](NC(=O)[C@H](CC(N)=O)NC(C)=O)C(C)C)C(=O)N[C@@H](CCCNC(=N)N)C(=O)N[C@@H](CC(=O)O)C(=O)N[C@@H](C)C(=O)N[C@H](C(=O)N[C@H](C(=O)N[C@@H](Cc1ccc(O)cc1)C(=O)N[C@H](C(=O)N[C@@H](CCC(=O)O)C(=O)N[C@@H](Cc1c[nH]cn1)C(=O)N[C@@H](C)C(=O)N[C@@H](CCCCCC(=O)NO)C(=O)N[C@@H](CCCNC(=N)N)C(=O)N[C@@H](CCCCN)C(=O)N[C@@H](Cc1c[nH]c2ccccc12)C(N)=O)[C@@H](C)O)[C@@H](C)O)C(C)C [17a] (Ac-NVIRDAVTYTEHA[Asu](NHOH)RKW-NH2)
Ki (HDAC8 [1]): 7640 ± 60 nM | HDAC8 dose-response data (relative enzyme activity, replicate values), Fig. 6 + S. Fig. 10 (HDAC8 [1]; Inhibitor conc [M] -8.49485 (log)): 101.42 and 103.54 | HDAC8 dose-response data (relative enzyme activity, replicate values), Fig. 6 + S. Fig. 10 (HDAC8 [1]; Inhibitor conc [M] -9.19382 (log)): 101.25 and 102.69 | HDAC8 dose-response data (relative enzyme activity, replicate values), Fig. 6 + S. Fig. 10 (HDAC8 [1]; Inhibitor conc [M] given as -7.09691 (log)): 100.44 and 104.26 | HDAC8 dose-response data (relative enzyme activity, replicate values), Fig. 6 + S. Fig. 10 (HDAC8 [1]; Inhibitor conc [M] given as -7.79588 (log)): 103.27 and 103.5 | HDAC8 dose-response data (relative enzyme activity, replicate values), Fig. 6 + S. Fig. 10 (HDAC8 [1]; Inhibitor conc [M] given as -9.89279 (log)): 103.01 and 103.7 | HDAC8 dose-response data (relative enzyme activity, replicate values), Fig. 6 + S. Fig. 10 (HDAC8 [1]; Inhibitor conc [M] given as -10.585 (log)): 99,9* and 101,68* | HDAC8 dose-response data (relative enzyme activity), Fig. 6 + S. Fig. 10 (HDAC8 [1]; Inhibitor conc [M] -4.30103): 25.68 and 25 | HDAC8 dose-response data (relative enzyme activity), Fig. 6 + S. Fig. 10 (HDAC8 [1]; Inhibitor conc [M] -5): 60.57 and 62.81 | HDAC8 dose-response data (relative enzyme activity), Fig. 6 + S. Fig. 10 (HDAC8 [1]; Inhibitor conc [M] -5.69897): 94.41 and 91.83 | HDAC8 dose-response data (relative enzyme activity), Fig. 6 + S. Fig. 10 (HDAC8 [1]; Inhibitor conc [M] -6.39794): 100.36 and 103.01 | Ki (HDAC3/NCoR2 [2]): 90.7 ± 0.3 nM | HDAC3 dose-response data (relative enzyme activity), Fig. 6 + S. Fig. 10 (HDAC3/NCoR2 [2]; log[inhibitor(M)] -4.30103): 1.48 and 1.63 | HDAC3 dose-response data (relative enzyme activity), Fig. 6 + S. Fig. 10 (HDAC3/NCoR2 [2]; log[inhibitor(M)] -5): 5.89 and 6.06 | HDAC3 dose-response data (relative enzyme activity), Fig. 6 + S. Fig. 10 (HDAC3/NCoR2 [2]; log[inhibitor(M)] -5.69897): 20.29 and 20.52 | HDAC3 dose-response data (relative enzyme activity), Fig. 6 + S. Fig. 10 (HDAC3/NCoR2 [2]; log[inhibitor(M)] -6.39794): 47.71 and 47.78 | HDAC3 dose-response data (relative enzyme activity), Fig. 6 + S. Fig. 10 (HDAC3/NCoR2 [2]; log[inhibitor(M)] -7.09691): 75.88 and 76.54 | HDAC3 dose-response data (relative enzyme activity), Fig. 6 + S. Fig. 10 (HDAC3/NCoR2 [2]; log[inhibitor(M)] -7.79588): 91.62 and 91.95 | HDAC3 dose-response data (relative enzyme activity), Fig. 6 + S. Fig. 10 (HDAC3/NCoR2 [2]; log[inhibitor(M)] -8.49485): 95.02 and 96.22 | HDAC3 dose-response data (relative enzyme activity), Fig. 6 + S. Fig. 10 (HDAC3/NCoR2 [2]; log[inhibitor(M)] -9.19382): 95.35 and 97.08 | HDAC3 dose-response data (relative enzyme activity), Fig. 6 + S. Fig. 10 (HDAC3/NCoR2 [2]; log[inhibitor(M)] -9.89279): 93.78 and 97.79 | HDAC3 dose-response data (relative enzyme activity), Fig. 6 + S. Fig. 10 (HDAC3/NCoR2 [2]; [9]): 97,93* and 99,33* | EC50 (HDAC8 [3]): > 25.1 nM | EC50 (HDAC2 [4]): 2 nM | EC50 (HDAC3/NCoR2 [5]): 3.16 nM | EC50 (HDAC1 [6]): > 25.1 nM | Ki (HDAC1 [7]): 198 ± 1 nM | HDAC1 dose-response data (relative enzyme activity), Fig. 6 + S. Fig. 10 (HDAC1 [7]; log[inhibitor(M)] -4.30103): 2.18 and 2.15 | HDAC1 dose-response data (relative enzyme activity), Fig. 6 + S. Fig. 10 (HDAC1 [7]; log[inhibitor(M)] -5): 8.98 and 8.99 | HDAC1 dose-response data (relative enzyme activity), Fig. 6 + S. Fig. 10 (HDAC1 [7]; log[inhibitor(M)] -5.69897): 31.34 and 30.75 | HDAC1 dose-response data (relative enzyme activity), Fig. 6 + S. Fig. 10 (HDAC1 [7]; log[inhibitor(M)] -6.39794): 69.51 and 67.92 | HDAC1 dose-response data (relative enzyme activity), Fig. 6 + S. Fig. 10 (HDAC1 [7]; log[inhibitor(M)] -7.09691): 91.81 and 91.08 | HDAC1 dose-response data (relative enzyme activity), Fig. 6 + S. Fig. 10 (HDAC1 [7]; log[inhibitor(M)] -7.79588): 100.43 and 97.85 | HDAC1 dose-response data (relative enzyme activity), Fig. 6 + S. Fig. 10 (HDAC1 [7]; log[inhibitor(M)] -8.49485): 101.87 and 100.28 | HDAC1 dose-response data (relative enzyme activity), Fig. 6 + S. Fig. 10 (HDAC1 [7]; log[inhibitor(M)] -9.19382): 101.68 and 99.1 | HDAC1 dose-response data (relative enzyme activity), Fig. 6 + S. Fig. 10 (HDAC1 [7]; log[inhibitor(M)] -9.89279): 102.02 and 100.95 | HDAC1 dose-response data (relative enzyme activity), Fig. 6 + S. Fig. 10 (HDAC1 [7]; [9]): 100,29* and 101,16* | HDAC2 dose-response data (relative enzyme activity), Fig. 6 + S. Fig. 10 (HDAC2 [8]; log[inhibitor(M)] -5): 11.53 and 14.13 | HDAC2 dose-response data (relative enzyme activity), Fig. 6 + S. Fig. 10 (HDAC2 [8]; log[inhibitor(M)] -5.69897): 38.85 and 44.3 | HDAC2 dose-response data (relative enzyme activity), Fig. 6 + S. Fig. 10 (HDAC2 [8]; log[inhibitor(M)] -7.79588): 99.37 and 102.1 | HDAC2 dose-response data (relative enzyme activity), Fig. 6 + S. Fig. 10 (HDAC2 [8]; [9]): 100,76* and 101,65* | Ki (HDAC2 [8]; resynthesized peptide in solution, Cheng-Prusoff, n = 2): 183 ± 1 nM | residual enzymatic activity relative to control wells (HDAC6; log[inhibitor(M)] -4.30103): 0.85 and 0.89 | residual enzymatic activity relative to control wells (HDAC6; log[inhibitor(M)] -5): 2.67 and 3.1 | residual enzymatic activity relative to control wells (HDAC6; log[inhibitor(M)] -5.69897): 11.05 and 12.51 | residual enzymatic activity relative to control wells (HDAC6; log[inhibitor(M)] -6.39794): 38.36 and 40.68 | residual enzymatic activity relative to control wells (HDAC6; log[inhibitor(M)] -7.09691): 72.92 and 74.07 | residual enzymatic activity relative to control wells (HDAC6; log[inhibitor(M)] -7.79588): 92.5 and 90.62 | residual enzymatic activity relative to control wells (HDAC6; log[inhibitor(M)] -8.49485): 97.52 and 97.55 | residual enzymatic activity relative to control wells (HDAC6; log[inhibitor(M)] -9.19382): 99.98 and 98.59 | residual enzymatic activity relative to control wells (HDAC6; log[inhibitor(M)] -9.89279): 98.46 and 98.12 | residual enzymatic activity relative to control wells (HDAC6; log[inhibitor(M)] -10.585): 98,71* and 97,59*
